“Also recorded” adds a separate entry of the source.
Tested on: A/PR/8/34; H1N1 viruses (PR8-WT, PR8-A122V)
Design: species or system C57BL/6 mice
Conditions: mouse, in vivo

Row | SMILES | protection from the effects of influenza infection | columnar organization of the airway epithelium (ip) | epithelial damage in lung airways caused by PR8-WT and PR8-A122V (ip)
1 | CC1=C2C[C@H]3[C@@H](CC=C4C[C@@H](O)CC[C@@]43C)[C@@H]2CC[C@]12O[C@@H]1C[C@H](C)CN[C@H]1[C@H]2C [cyclopamine] | partially protected | restored a degree of columnar organization | reduced epithelial damage; also recorded: partially rescued; also recorded: reduces viral damage in the lung
2 | C[C@H]1CC[C@]2(NC1)O[C@H]1C[C@H]3[C@@H]4CC[C@H]5C[C@@H](O)CC[C@]5(C)[C@H]4CC[C@]3(C)[C@H]1[C@@H]2C [tomatidine] | – | – | no rescue of airway damage; also recorded: no obvious effect

— patent US9095579B2 (priority 2012, dated 2015)
